We go through 1 molecule from US20250375454A1, “METHODS FOR TREATING HEPATOCELLULAR CARCINOMA” (THE HONG KONG POLYTECHNIC UNIVERSITY, priority 2024, published 2025).

The test system of one data set is PLC/PRF/5 cells. Kind of data set: MTT cytotoxicity assay, PLC/PRF/5. Type of data set: cell-based. Here is the method:
Huh7 and PLC/PRF/5 (CRL-8024™) cells were purchased from Thermo Fisher Scientific and the ATCC, respectively. MIHA was kindly provided by Dr. J. R. Chowdhury, Albert Einstein College of Medicine, New York. The cell lines were cultured in Dulbecco's modified Eagle medium (DMEM, Gibco, MA, USA) supplemented with 10% fetal bovine serum (FBS, BI, MA, USA) and 1× penicillin-streptomycin solution (Solarbio) at 37° C. in a humid, 5% CO2 atmosphere.
Huh7 and PLC/PRF/5 cells at a density of 5×10^3 cells/well were cultured in 96-well plates and incubated at 37° C. in 5% CO2. Both cell lines were treated with different concentrations of benzoxazinone derivatives (ZAK-I-57, ZAK-I-64, and ZAK-I-68). Both cell lines were incubated with ZAK-I-57 for 24 h and for 48 h with ZAK-I-64 and ZAK-I-68. MTT (3-[4,5-dimethylthiazol-2-yl]-2,5-diphenyltetrazolium bromide) solution was then added to each well and incubated for 3 h in a CO2 atmosphere at 37° C. Insoluble formazan crystals were dissolved by adding 100 μL of dimethyl sulfoxide (DMSO) to each well, followed by orbital agitation for 10 min. A minimum of three biological replicates were analyzed using a plate reader to determine IC50. The same experiment was performed with MIHA hepatocyte cells to evaluate the selectivity cytotoxicity of ZAK-I-57.

In data set [1] the test system is PLC/PRF/5 tumor-bearing mice. As to the kind of experiment: PLC/PRF/5 tumor-bearing mouse model. Type of data set: in vivo. Here is the method: Male BALB/c nude mice (6-8 weeks old) were obtained from the Centralized Animal Facilities at the Hong Kong Polytechnic University. All animals were bred and housed under specific pathogen-free conditions, with access to sterile food and water. Environmental conditions were strictly controlled, with temperature maintained at 23±2° C., relative humidity between 30%-70%, and a 12-hour light/dark cycle. Mice were group-housed in accordance with institutional guidelines for recommended stocking density. The animal experiments were conducted according to institutional guidelines, and the experimental procedures were approved by the PolyU Animal Experimentation Ethics Committee (Ref. No. 19-20/57-ABCT-R-STUDENT).
PLC/PRF/5 cells (5×10^5) were suspended in 100 μL PBS with Matrigel (1:1 ratio) and injected into the right back of nude mice. Small tumors (<70 mm^3) were formed two weeks after cell inoculation. Mice were then randomized into the vehicle control group, ZAK-I-57 treated groups (15 mg/kg and 30 mg/kg), or sorafenib (30 mg/kg) groups. Mice were administered 200 μL of vehicle water and drugs by oral gavage daily for three weeks. Tumor size was measured twice a week, and tumor volumes were calculated using the formula [(length×width×depth)/2 mm^3] while each mouse was weighed. At the end of the experiment, the mice were sacrificed, and the tumors and organs were collected for further experiments.
The Huh7 cells and tumor tissues were lysed on ice using the lysis buffer. Protein concentration was quantified using Bradford assay (Bio-Rad, Hercules, CA, USA). Equivalent amounts of protein (25-50 μg) were loaded onto 10% sodium dodecyl sulfate-polyacrylamide gel electrophoresis (SDS-PAGE) and transferred to polyvinylidene fluoride (PVDF) membranes. Membranes were blocked with 5% non-fat milk in Tris-buffered saline Tween 20 (TBST) for an hour. The blots were incubated with primary antibodies (EGFR (4267S, Cell signaling technology, MA, USA), c-Myc (5605S, Cell signaling technology, MA, USA), Bax (2772S, Cell signaling technology, MA, USA), Bcl-2 (sc-7382, Santa Cruze, TX, USA), ERBB2 (2165S, Cell signaling technology, MA, USA), and α-tubulin (62204, Invitrogen, MA, USA), 1:1000) at 4° C. overnight. Subsequently, the membranes were washed thrice (15 min each) with TBST solution and incubated for 1 h with secondary horseradish peroxidase-conjugated antibodies (NA934 and NA931, Cytiva, MA, USA, 1:5000). Blots were then detected using an ECL kit and photographed using a ChemiDoc Imaging System (Bio-Rad, MA, USA). The bands were quantified using the ImageJ software (NIH, USA). The intensities of the bands for each protein sample were normalized to those of α-tubulin (internal standard protein). Quantitative data are presented as a fold change of untreated control.
Tumors were fixed in 4% formalin, embedded in paraffin, and sectioned at […] thickness for IHC staining. Ki-67 primary antibody (ab16667, Abcam, MA, USA) and anti-mouse IgG recombinant secondary antibody (7056S, Cell Signaling Technology, MA, USA) were used for IHC staining. Hemotoxin (Invitrogen, MA, USA) was used to stain nuclei. The number of positively stained cells in Ki-67-stained slides was evaluated using ImageJ software (NIH, MD, USA).
H&E staining was performed on histological sections of organs (heart, spleen, kidney, liver, and lung) to examine the toxicity of ZAK-I-57 in PLC/PRF/5 tumor-bearing and PDTX model mice. Briefly, the histological slides were deparaffinized using 100% xylene (v/v). The slides were then washed several times with ethanol solutions of various concentrations (70-100%, v/v) and immersed in hematoxylin for 5 min, followed by a quick dip in acidic alcohol. Next, the slides were immersed in Scott's tap water for 3 min and in 1% eosin for 30 s. Finally, the slides were dehydrated using ethanol solutions of various concentrations (70%-100%, v/v) and 100% xylene (v/v) and mounted using a mounting medium.

The mark [2] stands for this setting: ZAK-I-57 15 and 30 mg/kg, vs vehicle control and sorafenib 30 mg/kg.
Setting [3] is: heart, liver, spleen, lung, kidney, ZAK-I-57 15 and 30 mg/kg, sorafenib 30 mg/kg.

Molecules are shown by their SMILES.

Take `O=c1oc(-c2ccc3ccccc3c2)nc2cc([N+](=O)[O-])ccc12` [ZAK-I-57, 2-(naphthalen-2-yl)-7-nitro-4H-3,1-benzoxazin-4-one]: in the data set with PLC/PRF/5 cells (HCC cells (PLC/PRF/5)), the “IC50 against HCC cells, compared with sorafenib and artesunate” value was “lower than sorafenib and artesunate”. In addition, in the data set with PLC/PRF/5 cells (PLC/PRF/5, ZAK-I-57 24 h, ZAK-I-64 and ZAK-I-68 48 h), the “cytotoxicity (cell viability)” value is recorded as “concentration-dependent increase in cytotoxicity”. In data set [1] (30 mg/kg), the “Ki-67 suppression compared with sorafenib” value is given as “significantly greater Ki-67 suppression than sorafenib”; the “tumor cell density and necrosis (H&E staining)” value is “substantial decrease in cell density and necrosis”; the “tumor volume reduction compared with sorafenib” value is given as “outperforming sorafenib”; the “tumor weight reduction compared with sorafenib” value is reported as “outperforming sorafenib”. Also, in data set [1] (30 mg/kg, vs control), the “Bax expression in tumor (western blot)” value is recorded as “increase in the expression”, the “Bcl-2 expression in tumor (western blot)” value is “significantly attenuated”, the “EGFR expression in tumor (western blot)” value is reported as “significantly attenuated” and the “c-Myc expression in tumor (western blot)” value is reported as “significantly attenuated”. Further, in data set [1] (15 and 30 mg/kg), the “Ki-67 expression in tumor (IHC)” value is recorded as “inhibition of Ki-67 expression” and the tumor growth inhibition entry is “significantly inhibited tumor growth”. The “tumor cellularity (H&E staining)” value in data set [1] (ZAK-I-57 15 and 30 mg/kg, sorafenib 30 mg/kg, vs vehicle control) is “marked reduction in tumor cellularity”. Moreover, in data set [1] (setting [2]), the tumor volume entry is recorded as “marked reduction” and the tumor weight entry is reported as “marked reduction”. In data set [1] (setting [3]), the “gross anatomical examination of vital organs” value is on record as “maintained tissue morphology comparable to the vehicle control” and the “histopathology of vital organs (H&E)” value is reported as “no histological abnormalities were observed”. In data set [1] (oral gavage daily, 20 days, ZAK-I-57 15 and 30 mg/kg, sorafenib 30 mg/kg), the body weight entry is “no significant changes”.
